Measured values from patent US9809587B2, “Pesticidally active heterocyclic derivatives with sulphur containing substituents” (Syngenta Participations AG, priority 2014, dated 2017).

Key:
Format in all cases: in vivo
[1] = test system: Myzus persicae (Green Peach Aphid); assay: Myzus persicae (green peach aphid), sprayed sunflower leaf discs; details: foliar, 144 h, application rate of 200 ppm, mixed ages on sunflower leaf discs, 6 days after infestation
Procedure: Example B4: Myzus persicae (Green Peach Aphid)
Sunflower leaf discs were placed on agar in a 24-well microtiter plate and sprayed with aqueous test solutions prepared from 10′000 ppm DMSO stock solutions. After drying, the leaf discs were infested with an aphid population of mixed ages. The samples were assessed for mortality 6 days after infestation.

[2] = test system: Bemisia tabaci (Cotton White Fly); assay: Bemisia tabaci (cotton white fly), sprayed cotton leaf discs; details: foliar, 144 h, application rate of 200 ppm, adult white flies on cotton leaf discs, 6 days after incubation
Procedure: Example B1: Bemisia tabaci (Cotton White Fly)
Cotton leaf discs were placed on agar in 24-well microtiter plates and sprayed with aqueous test solutions prepared from 10′000 ppm DMSO stock solutions. After drying the leaf discs were infested with adult white flies. The samples were checked for mortality 6 days after incubation.

[3] = test system: Plutella xylostella (Diamond Back Moth); assay: Plutella xylostella (diamond back moth), treated artificial diet; details: 120 h, application rate of 200 ppm, L2 larvae on artificial diet, 5 days after infestation, read-out: effect in at least one of the two categories (mortality or growth inhibition)
Procedure: Example B6: Plutella xylostella (Diamond Back Moth)
24-well microtiter plates with artificial diet were treated with aqueous test solutions prepared from 10′000 ppm DMSO stock solutions by pipetting. After drying, the plates were infested with L2 larvae (10 to 15 per well). The samples were assessed for mortality and growth inhibition in comparison to untreated samples 5 days after infestation.
The following compounds gave an effect of at least 80% in at least one of the two categories (mortality or growth inhibition) at an application rate of 200 ppm: […]

[4] = test system: Euschistus heros (Neotropical Brown Stink Bug); assay: Euschistus heros (neotropical brown stink bug), sprayed soybean leaf; details: 120 h, application rate of 200 ppm, N-2 nymphs on soybean leaf, 5 days after infestation
Procedure: Example B3: Euschistus heros (Neotropical Brown Stink Bug)
Soybean leaf on agar in 24-well microtiter plates were sprayed with aqueous test solutions prepared from 10′000 ppm DMSO stock solutions. After drying the leaf were infested with N-2 nymphs. The samples were assessed for mortality in comparison to untreated samples 5 days after infestation.

[5] = test system: Diabrotica balteata (Corn Root Worm); assay: Diabrotica balteata (corn root worm), sprayed maize sprouts; details: 96 h, application rate of 200 ppm, L2 larvae on maize sprouts, 4 days after infestation
Procedure: Example B2: Diabrotica balteata (Corn Root Worm)
Maize sprouts, placed on an agar layer in 24-well microtiter plates were treated with aqueous test solutions prepared from 10′000 ppm DMSO stock solutions by spraying. After drying, the plates were infested with L2 larvae (6 to 10 per well). The samples were assessed for mortality and growth inhibition in comparison to untreated samples 4 days after infestation.

[6] = test system: Spodoptera littoralis (Egyqptian Cotton Leaf Worm); assay: Spodoptera littoralis (Egyptian cotton leaf worm), compound in agar taken up by lettuce roots; details: 144 h, test rate of 12.5 ppm, uptake by lettuce roots from agar, 6 days after infestation, read-out: effect in at least one of the three categories (mortality, anti-feedancy, or growth inhibition)
Excerpt: Example B8: Spodoptera littoralis (Egyqptian Cotton Leaf Worm)
Test compounds were applied by pipette from 10′000 ppm DMSO stock solutions into 24-well plates and mixed with agar. Lettuce seeds were placed on the agar and the multi well plate was closed by another plate which contains also agar. After 7 days the roots have absorbed the compound and the lettuce has grown into the lid plate. The lettuce leafs were now cut off into the lid plate. Spodoptera eggs were pipetted through a plastic stencil on a humid gel blotting paper and the plate closed with it. The samples were assessed for mortality, anti-feedant effect and growth inhibition in comparison to untreated samples 6 days after infestation.
The following compounds gave an effect of at least 80% in at least one of the three categories (mortality, anti-feedancy, or growth inhibition) at a test rate of 12.5 ppm: […]

[7] = test system: Spodoptera littoralis (Egyqptian Cotton Leaf Worm); assay: Spodoptera littoralis (Egyptian cotton leaf worm), sprayed cotton leaf discs; details: foliar, 72 h, application rate of 200 ppm, L1 larvae on cotton leaf discs, 3 days after infestation
Procedure: Example B7: Spodoptera littoralis (Egyqptian Cotton Leaf Worm)
Cotton leaf discs were placed on agar in 24-well microtiter plates and sprayed with aqueous test solutions prepared from 10′000 ppm DMSO stock solutions. After drying the leaf discs were infested with five L1 larvae. The samples were assessed for mortality, anti-feedant effect, and growth inhibition in comparison to untreated samples 3 days after infestation. Control of Spodoptera littoralis by a test sample is when at least one of mortality, anti-feedant effect, and growth inhibition is higher than the untreated sample.

CCS(=O)(=O)c1cc(-c2ccncc2)cnc1-c1nc2cc(C(F)(F)F)ncc2n1C [Compound P81]
≥ 80%: mortality at 200 ppm [1] | mortality at 200 ppm [2] | percent effect (mortality or growth inhibition) at 200 ppm [3] | mortality at 200 ppm [4]

CCS(=O)(=O)c1cc(-c2ccnc(Cl)n2)cnc1-c1nc2cc(C(F)(F)F)ncc2n1C [Compound P105]
≥ 80%: mortality at 200 ppm [5] | mortality at 200 ppm [1] | percent effect (mortality or growth inhibition) at 200 ppm [3] | percent control (mortality, anti-feedancy or growth inhibition) at 12.5 ppm [6] | percent control (mortality, anti-feedant effect or growth inhibition) at 200 ppm [7]

CCS(=O)(=O)c1cc(-c2cccc3c2OC(F)(F)O3)cnc1-c1nc2cc(C(F)(F)F)ncc2n1C [Compound P72]
≥ 80%: mortality at 200 ppm [5] | mortality at 200 ppm [1] | percent effect (mortality or growth inhibition) at 200 ppm [3] | mortality at 200 ppm [4] | percent control (mortality, anti-feedancy or growth inhibition) at 12.5 ppm [6] | percent control (mortality, anti-feedant effect or growth inhibition) at 200 ppm [7]

CCS(=O)(=O)c1cc(-c2cccnc2)cnc1-c1nc2cc(C(F)(F)F)ncc2n1C [Compound P80]
≥ 80%: mortality at 200 ppm [1] | mortality at 200 ppm [2] | percent effect (mortality or growth inhibition) at 200 ppm [3] | percent control (mortality, anti-feedant effect or growth inhibition) at 200 ppm [7]

CCS(=O)(=O)c1cc(-c2ncccc2C(F)(F)F)cnc1-c1nc2cc(C(F)(F)F)ncc2n1C [Compound P52]
≥ 80%: mortality at 200 ppm [5] | mortality at 200 ppm [1] | percent effect (mortality or growth inhibition) at 200 ppm [3] | mortality at 200 ppm [4] | percent control (mortality, anti-feedancy or growth inhibition) at 12.5 ppm [6] | percent control (mortality, anti-feedant effect or growth inhibition) at 200 ppm [7]

CCS(=O)(=O)c1cc(-c2ncc(Cl)cc2Cl)cnc1-c1nc2cc(C(F)(F)F)ncc2n1C [Compound P44]
≥ 80%: mortality at 200 ppm [5] | mortality at 200 ppm [1] | percent effect (mortality or growth inhibition) at 200 ppm [3] | mortality at 200 ppm [4] | percent control (mortality, anti-feedancy or growth inhibition) at 12.5 ppm [6] | percent control (mortality, anti-feedant effect or growth inhibition) at 200 ppm [7]

CCS(=O)(=O)c1cc(-c2cccc(OC)n2)cnc1-c1nc2cc(C(F)(F)F)ncc2n1C [Compound P95]
≥ 80%: mortality at 200 ppm [5] | mortality at 200 ppm [1] | percent effect (mortality or growth inhibition) at 200 ppm [3] | mortality at 200 ppm [4] | percent control (mortality, anti-feedant effect or growth inhibition) at 200 ppm [7]

CCS(=O)(=O)c1cc(-c2cnc3nc(C(F)(F)F)ccn23)cnc1-c1nc2cc(C(F)(F)F)ncc2n1C [Compound P36]
≥ 80%: mortality at 200 ppm [5] | mortality at 200 ppm [1] | percent effect (mortality or growth inhibition) at 200 ppm [3] | mortality at 200 ppm [4] | percent control (mortality, anti-feedant effect or growth inhibition) at 200 ppm [7]

CCS(=O)(=O)c1cc(-c2ncccc2C)cnc1-c1nc2cc(C(F)(F)F)ncc2n1C [Compound P50]
≥ 80%: mortality at 200 ppm [5] | mortality at 200 ppm [1] | percent effect (mortality or growth inhibition) at 200 ppm [3] | mortality at 200 ppm [4] | percent control (mortality, anti-feedancy or growth inhibition) at 12.5 ppm [6] | percent control (mortality, anti-feedant effect or growth inhibition) at 200 ppm [7]

CCS(=O)(=O)c1cc(-c2ncccc2OC(F)F)cnc1-c1nc2cc(C(F)(F)F)ncc2n1C [Compound P43]
≥ 80%: mortality at 200 ppm [5] | mortality at 200 ppm [1] | percent effect (mortality or growth inhibition) at 200 ppm [3] | mortality at 200 ppm [4] | percent control (mortality, anti-feedant effect or growth inhibition) at 200 ppm [7]

CCS(=O)(=O)c1cc(-c2cncc(C)c2)cnc1-c1nc2cc(C(F)(F)F)ncc2n1C [Compound P45]
≥ 80%: mortality at 200 ppm [5] | mortality at 200 ppm [1] | mortality at 200 ppm [2] | percent effect (mortality or growth inhibition) at 200 ppm [3] | mortality at 200 ppm [4] | percent control (mortality, anti-feedant effect or growth inhibition) at 200 ppm [7]

CCS(=O)(=O)c1cc(-n2nc(C)cc2C)cnc1-c1nc2cc(C(F)(F)F)ncc2n1C [Compound P15]
≥ 80%: mortality at 200 ppm [5] | mortality at 200 ppm [1] | percent effect (mortality or growth inhibition) at 200 ppm [3] | mortality at 200 ppm [4] | percent control (mortality, anti-feedant effect or growth inhibition) at 200 ppm [7]

CCS(=O)(=O)c1cc(-c2cnc(Cl)nc2)cnc1-c1nc2cc(C(F)(F)F)ncc2n1C [Compound P10]
≥ 80%: mortality at 200 ppm [2]

CCS(=O)(=O)c1cc(-c2ccc(C)cn2)cnc1-c1nc2cc(C(F)(F)F)ncc2n1C [Compound P55]
≥ 80%: mortality at 200 ppm [5] | mortality at 200 ppm [1] | percent effect (mortality or growth inhibition) at 200 ppm [3] | mortality at 200 ppm [4] | percent control (mortality, anti-feedant effect or growth inhibition) at 200 ppm [7]

CCS(=O)(=O)c1cc(-c2ccsc2)cnc1-c1nc2cc(C(F)(F)F)ncc2n1C [Compound P82]
≥ 80%: mortality at 200 ppm [5] | mortality at 200 ppm [1] | percent effect (mortality or growth inhibition) at 200 ppm [3] | percent control (mortality, anti-feedancy or growth inhibition) at 12.5 ppm [6] | percent control (mortality, anti-feedant effect or growth inhibition) at 200 ppm [7]

CCS(=O)(=O)c1cc(-c2ccc(-c3ccc(F)cc3)nc2)cnc1-c1nc2cc(C(F)(F)F)ncc2n1C [Compound P12]
≥ 80%: mortality at 200 ppm [5] | mortality at 200 ppm [1] | percent effect (mortality or growth inhibition) at 200 ppm [3] | mortality at 200 ppm [4] | percent control (mortality, anti-feedant effect or growth inhibition) at 200 ppm [7]

CCS(=O)(=O)c1cc(-c2ncc(C(F)(F)F)cc2F)cnc1-c1nc2cc(C(F)(F)F)ncc2n1C [Compound P54]
≥ 80%: mortality at 200 ppm [5] | mortality at 200 ppm [1] | percent effect (mortality or growth inhibition) at 200 ppm [3] | mortality at 200 ppm [4] | percent control (mortality, anti-feedancy or growth inhibition) at 12.5 ppm [6] | percent control (mortality, anti-feedant effect or growth inhibition) at 200 ppm [7]

CCS(=O)(=O)c1cc(-c2cc(C)ccn2)cnc1-c1nc2cc(C(F)(F)F)ncc2n1C [Compound P57]
≥ 80%: mortality at 200 ppm [1] | percent effect (mortality or growth inhibition) at 200 ppm [3] | mortality at 200 ppm [4] | percent control (mortality, anti-feedancy or growth inhibition) at 12.5 ppm [6] | percent control (mortality, anti-feedant effect or growth inhibition) at 200 ppm [7]

CCS(=O)(=O)c1cc(-c2ccc(C#N)nc2)cnc1-c1nc2cc(C(F)(F)F)ncc2n1C [Compound P65]
≥ 80%: mortality at 200 ppm [5] | mortality at 200 ppm [1] | percent effect (mortality or growth inhibition) at 200 ppm [3] | mortality at 200 ppm [4] | percent control (mortality, anti-feedant effect or growth inhibition) at 200 ppm [7]
